The target of data set [1] is Elongation factor 1-delta (Homo sapiens) (UniProt P29692). The experiment in a line: Binding affinity to elongation factor 1-delta in human Hela cells lysates assessed as protein enrichment by measuring normalized heavy/light ratio at by nano-LC-ESIMS/MS analysis. The class given is cell-free.
Data set [2] deals with Vimentin (Homo sapiens) (UniProt P08670). The experiment in a line: Binding affinity to vimentin in human Hela cells lysates assessed as protein enrichment by measuring normalized heavy/light ratio at by nano-LC-ESIMS/MS analysis. Format: cell-free.
Data set [3] concerns the target Heat shock protein HSP 90-beta (Homo sapiens) (UniProt P08238). Kind of data set: Binding affinity to heat shock protein 90-beta in human Hela cells lysates assessed as protein enrichment by measuring normalized heavy/light ratio at by nano-LC-ESIMS/MS analysis. Format: cell-free.
In data set [4] the target is Elongation factor 2 (Homo sapiens) (UniProt P13639). The experiment in a line: Binding affinity to elongation factor 2 in human Hela cells lysates assessed as protein enrichment by measuring normalized heavy/light ratio at by nano-LC-ESIMS/MS analysis. The class given is cell-free.
For data set [5], the target named is Elongation factor 1-gamma (Homo sapiens) (UniProt P26641). The experiment in a line: Binding affinity to elongation factor 1-gamma in human Hela cells lysates assessed as protein enrichment by measuring normalized heavy/light ratio at by nano-LC-ESIMS/MS analysis. Format: cell-free.
In data set [6] the target is Actin, cytoplasmic 1 (Homo sapiens) (UniProt P60709). The experiment in a line: Binding affinity to actin, Cytoplasmic1 in human Hela cells lysates assessed as protein enrichment by measuring normalized heavy/light ratio at by nano-LC-ESIMS/MS analysis. The class given is cell-free.
Data set [7] deals with T1, 80S Ribosome (Homo sapiens) (UniProt P08865+P42677+P62753+P15880+P23396+P61247+P62701+P22090+P46782+P62081+P62241+P46781+P46783+P62280+P25398+P62277+P62263+P62841+P62244+P62249+P08708+P62269+P39019+P60866+P63220+P62266+P62847+P62851+P62854+P62979+P62857+P62273+P62861+P39023+P36578+P46777+Q02878+P18124+P62424+P62917+P32969+P27635+P62906+P62913+P30050+P26373+P40429+P50914+P61313+P18621+Q07020+Q02543+P84098+P46778+P35268+P62829+P62750+P83731+P61254+P61353+P46776+P46779+P47914+P62888+P62899+P62910+P49207+P42766+P18077+Q9Y3U8+P83881+P61927+P61513+P63173+P62891+P62945+P05388+P05386). Kind of data set: Binding affinity to 40S ribosomal protein S2 in human Hela cells lysates assessed as protein enrichment by measuring normalized heavy/light ratio at by nano-LC-ESIMS/MS analysis. Format: cell-free.

Data set [8] has as its target Elongation factor 1-alpha 1 (Homo sapiens) (UniProt P68104). Kind of data set: Binding affinity to elongation factor 1-alpha 1 in human Hela cells lysates assessed as protein enrichment by measuring normalized heavy/light ratio at by nano-LC-ESIMS/MS analysis. Format: cell-free.
In data set [9] the target is T1, 80S Ribosome (Homo sapiens). Kind of data set: Binding affinity to 60S acidic ribosomal protein P0 in human Hela cells lysates assessed as protein enrichment by measuring normalized heavy/light ratio at by nano-LC-ESIMS/MS analysis. The class given is cell-free.
The target in data set [10] is Small ribosomal subunit protein eS6 (Homo sapiens) (UniProt P62753). The experiment in a line: Binding affinity to 40S ribosomal protein S6 in human Hela cells lysates assessed as protein enrichment by measuring normalized heavy/light ratio at by nano-LC-ESIMS/MS analysis. The class given is cell-free.
Data set [11] has as its target Peptidyl-prolyl cis-trans isomerase A (Homo sapiens) (UniProt P62937). The experiment in a line: Binding affinity to peptidyl-prolylcis-trans isomerase in human Hela cells lysates assessed as protein enrichment by measuring normalized heavy/light ratio at by nano-LC-ESIMS/MS analysis. The class given is cell-free.
Data set [12] deals with T1, 80S Ribosome (Homo sapiens). Kind of data set: Binding affinity to ribosomal protein S3 in human Hela cells lysates assessed as protein enrichment by Western blotting analysis. The class given is cell-free. Background: A western blot detects proteins with antibodies after separation by electrophoresis.
The target is the same in data set [13]. Kind of data set: Binding affinity to 60S ribosomal protein L35 in human Hela cells lysates assessed as protein enrichment by measuring normalized heavy/light ratio at by nano-LC-ESIMS/MS analysis. Format: cell-free.
Data set [14] is described as follows: Drug internalization in human HeLa cells at 1 uM by RP-HPLC-MS analysis. Format: ADME, cell-based.
Data set [15] deals with T1, 80S Ribosome (Homo sapiens). The experiment in a line: Binding affinity to 40S ribosomal protein S3a in human Hela cells lysates assessed as protein enrichment by measuring normalized heavy/light ratio at by nano-LC-ESIMS/MS analysis. The class given is cell-free.
Data set [16] shares this target. The experiment in a line: Binding affinity to 40S ribosomal protein S14 in human Hela cells lysates assessed as protein enrichment by measuring normalized heavy/light ratio at by nano-LC-ESIMS/MS analysis. Format: cell-free.
For data set [17] the target is unchanged. Kind of data set: Binding affinity to 60S ribosomal protein L38 in human Hela cells lysates assessed as protein enrichment by measuring normalized heavy/light ratio at by nano-LC-ESIMS/MS analysis. The class given is cell-free.
Data set [18] addresses Pyruvate kinase PKM (Homo sapiens) (UniProt P14618). The experiment in a line: Binding affinity to pyruvate kinase isozymes M1/M2 in human Hela cells lysates assessed as protein enrichment by measuring normalized heavy/light ratio at by nano-LC-ESIMS/MS analysis. Format: cell-free.
The target of data set [19] is T1, 80S Ribosome (Homo sapiens). The experiment in a line: Binding affinity to 40S ribosomal protein S7 in human Hela cells lysates assessed as protein enrichment by measuring normalized heavy/light ratio at by nano-LC-ESIMS/MS analysis. Format: cell-free.
For data set [20] the target is unchanged. The experiment in a line: Binding affinity to 40S ribosomal protein S3 in human Hela cells lysates assessed as protein enrichment by measuring normalized heavy/light ratio at by nano-LC-ESIMS/MS analysis. The class given is cell-free.

Activity calls are given as the source filed them. The rule behind the calls is not given here.

Sequence of Vimentin (Homo sapiens) (P08670 whole entry): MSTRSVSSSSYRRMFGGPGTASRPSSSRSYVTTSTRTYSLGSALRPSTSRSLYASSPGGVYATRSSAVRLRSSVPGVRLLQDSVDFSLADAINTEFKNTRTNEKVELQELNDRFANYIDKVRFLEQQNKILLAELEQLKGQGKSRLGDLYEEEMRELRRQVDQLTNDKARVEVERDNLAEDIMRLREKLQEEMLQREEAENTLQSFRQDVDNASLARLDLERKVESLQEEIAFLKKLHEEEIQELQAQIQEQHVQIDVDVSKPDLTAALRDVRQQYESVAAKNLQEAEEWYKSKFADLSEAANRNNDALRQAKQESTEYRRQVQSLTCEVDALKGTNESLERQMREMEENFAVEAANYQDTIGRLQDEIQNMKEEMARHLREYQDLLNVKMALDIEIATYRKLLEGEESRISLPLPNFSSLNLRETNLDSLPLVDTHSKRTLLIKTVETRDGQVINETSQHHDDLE
Sequence of Elongation factor 1-gamma (Homo sapiens) (P26641 whole entry): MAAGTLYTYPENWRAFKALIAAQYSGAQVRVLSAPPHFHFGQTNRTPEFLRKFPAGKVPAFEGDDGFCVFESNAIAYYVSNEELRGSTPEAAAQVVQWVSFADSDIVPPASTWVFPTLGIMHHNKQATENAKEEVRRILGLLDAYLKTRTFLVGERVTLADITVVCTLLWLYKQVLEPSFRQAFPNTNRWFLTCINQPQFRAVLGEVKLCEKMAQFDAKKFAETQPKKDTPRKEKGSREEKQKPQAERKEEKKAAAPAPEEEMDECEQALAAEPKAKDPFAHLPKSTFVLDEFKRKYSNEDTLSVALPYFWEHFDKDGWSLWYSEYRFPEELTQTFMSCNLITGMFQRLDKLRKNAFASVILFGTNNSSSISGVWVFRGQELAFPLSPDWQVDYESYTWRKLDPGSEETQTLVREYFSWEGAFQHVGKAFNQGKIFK
Sequence of Pyruvate kinase PKM (Homo sapiens) (P14618 2-531 limits assumed): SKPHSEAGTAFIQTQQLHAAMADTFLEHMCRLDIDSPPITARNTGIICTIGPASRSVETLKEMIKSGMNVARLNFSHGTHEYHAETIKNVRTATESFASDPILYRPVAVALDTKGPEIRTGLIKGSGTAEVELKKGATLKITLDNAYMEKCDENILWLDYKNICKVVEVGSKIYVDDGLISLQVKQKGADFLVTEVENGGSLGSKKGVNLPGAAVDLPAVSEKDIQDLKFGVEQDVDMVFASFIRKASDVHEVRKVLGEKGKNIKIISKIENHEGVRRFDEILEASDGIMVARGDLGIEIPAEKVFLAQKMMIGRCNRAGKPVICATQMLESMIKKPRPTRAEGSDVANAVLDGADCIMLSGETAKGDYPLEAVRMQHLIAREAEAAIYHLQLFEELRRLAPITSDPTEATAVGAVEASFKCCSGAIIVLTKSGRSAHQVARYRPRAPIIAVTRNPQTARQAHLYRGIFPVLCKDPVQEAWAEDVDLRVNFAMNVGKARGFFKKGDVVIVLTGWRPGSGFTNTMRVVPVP
Sequence of Elongation factor 1-delta (Homo sapiens) (P29692 whole entry): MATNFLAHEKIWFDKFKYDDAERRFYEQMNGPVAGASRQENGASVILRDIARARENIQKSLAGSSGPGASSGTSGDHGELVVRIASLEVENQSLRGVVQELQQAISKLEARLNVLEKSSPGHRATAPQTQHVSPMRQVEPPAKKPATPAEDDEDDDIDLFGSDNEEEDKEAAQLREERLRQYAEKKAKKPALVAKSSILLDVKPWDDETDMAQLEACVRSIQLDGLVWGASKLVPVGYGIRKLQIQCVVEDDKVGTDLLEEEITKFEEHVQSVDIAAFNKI
Sequence of Elongation factor 1-alpha 1 (Homo sapiens) (P68104 whole entry): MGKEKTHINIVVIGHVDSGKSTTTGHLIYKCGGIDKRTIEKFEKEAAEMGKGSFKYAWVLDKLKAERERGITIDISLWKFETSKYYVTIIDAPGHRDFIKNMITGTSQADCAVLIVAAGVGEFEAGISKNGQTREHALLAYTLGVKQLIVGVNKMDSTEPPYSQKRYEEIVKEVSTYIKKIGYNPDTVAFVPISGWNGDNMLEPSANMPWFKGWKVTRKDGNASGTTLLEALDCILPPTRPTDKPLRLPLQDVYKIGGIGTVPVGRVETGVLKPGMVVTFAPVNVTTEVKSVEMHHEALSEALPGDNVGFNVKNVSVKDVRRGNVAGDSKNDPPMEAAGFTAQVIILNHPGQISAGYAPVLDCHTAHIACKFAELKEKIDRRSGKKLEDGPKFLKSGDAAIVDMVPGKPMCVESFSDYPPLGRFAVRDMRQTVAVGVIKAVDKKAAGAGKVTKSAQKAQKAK
Sequence of Heat shock protein HSP 90-beta (Homo sapiens) (P08238 whole entry): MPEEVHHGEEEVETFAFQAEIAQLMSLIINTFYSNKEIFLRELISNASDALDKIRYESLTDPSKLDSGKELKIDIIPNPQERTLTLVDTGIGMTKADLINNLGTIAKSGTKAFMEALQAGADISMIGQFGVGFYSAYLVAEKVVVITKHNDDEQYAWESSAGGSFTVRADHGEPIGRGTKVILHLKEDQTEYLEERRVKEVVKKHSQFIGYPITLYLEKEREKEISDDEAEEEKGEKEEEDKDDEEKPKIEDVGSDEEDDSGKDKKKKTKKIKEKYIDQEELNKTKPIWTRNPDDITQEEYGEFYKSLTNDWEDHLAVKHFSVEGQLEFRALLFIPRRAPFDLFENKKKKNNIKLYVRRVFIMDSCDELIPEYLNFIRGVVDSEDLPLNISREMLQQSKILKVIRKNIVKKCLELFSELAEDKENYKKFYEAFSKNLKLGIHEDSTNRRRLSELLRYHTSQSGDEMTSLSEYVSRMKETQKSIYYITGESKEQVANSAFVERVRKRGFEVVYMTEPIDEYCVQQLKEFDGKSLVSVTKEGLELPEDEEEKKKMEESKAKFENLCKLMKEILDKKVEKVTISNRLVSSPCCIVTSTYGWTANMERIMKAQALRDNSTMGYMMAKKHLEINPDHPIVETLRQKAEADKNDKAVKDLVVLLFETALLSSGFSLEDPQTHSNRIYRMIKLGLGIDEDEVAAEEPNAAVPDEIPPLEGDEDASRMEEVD
Sequence of Peptidyl-prolyl cis-trans isomerase A (Homo sapiens) (P62937 whole entry, looked up): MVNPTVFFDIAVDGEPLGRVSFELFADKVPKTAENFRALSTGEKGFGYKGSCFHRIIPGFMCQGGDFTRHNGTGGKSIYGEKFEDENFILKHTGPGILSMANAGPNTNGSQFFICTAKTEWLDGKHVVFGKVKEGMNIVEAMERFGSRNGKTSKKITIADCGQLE

With `C/C=C(\C)C(=O)O[C@H]1[C@H](O)[C@]2(COC(C)=O)[C@@H](O)C[C@]3(C)C(=CC[C@@H]4[C@@]5(C)CC[C@H](O[C@@H]6O[C@H](C(=O)O)[C@@H](O)[C@H](O)[C@H]6O)[C@@](C)(CO)[C@@H]5CC[C@]43C)[C@@H]2CC1(C)C`, the Ratio in [1] stood at 0.622; in data set [2], 0.817; in [3], 0.737; in data set [4], 0.688; in data set [5] it was 0.536; in [6], 0.436. Further, the Ratio is 0.114 in data set [7]; 0.629 in [8]; 0.245 in data set [9]; 0.317 in data set [10]; 1.21 in [11]; 0.062 in data set [13]. Moreover, the Ratio stood at 0.238 in data set [15]; 0.405 in data set [16]; 0.33 in [17]; 0.899 in data set [18]; 0.119 in [19]; 0.269 in [20]. Also, the result in data set [12] was Active. Moreover, the Drug uptake in data set [14] is reported as 4%.

The values above are taken from ChEMBL document CHEMBL4270485, “Determination of Gymnemic Acid I as a Protein Biosynthesis Inhibitor Using Chemical Proteomics” (J Nat Prod, 2017).
